# Values joined by “and” are separate entries in the source; they are usually repeats but may differ in a detail not shown here. Identical values can stand only once.
# Tests used:
# vertebrae and femur = experiment: Biomechanical testing of L3 vertebrae (compression) and femur (3-point bending); type: in vivo, mouse; details: for Elastic Modulus (MPa) / Ultimate Stress (MPa) / Yield Stress (MPa): individual mice
# Description: Previously it was established that C57BL/6 J female mice start losing trabecular bone mass naturally after they reach 8 weeks of age, which provides a model to study the anabolic effects of compound on bone metabolism. The use of females provides a test model with low if any basal INSL3 exposure. […] As previously reported, INSL3 induces an increase in Alp in primary human osteoblasts[20] (Supplementary Fig. 11b) while 6641 induces an increase in Osteocalcin expression (Fig. 5b). After micro-CT scanning, these same lumbar spine and femur from 6641- and vehicle-treated mice were utilized for biomechanical testing. The femurs were tested in a 3-point bending test and the L3 vertebrae in a compression test using an ElectroForce 5500 Test Instrument (TA Instruments, New Castle, DE) with a ramp rate of 0.05 mm/sec and support span of 8.1 mm, running […] software version 8.2. Time, force, and displacement were collected for use in the analysis of mechanical and material properties using custom MATLAB codes (MathWorks, Natick, MA). The Moment of Inertia (MoI) was calculated based on the micro-CT measurements. […] Biomechanical material properties in a vertebrae and b femur of vehicle- and compound- treated female mice. 12 and 15 mice were used in the vehicle and compound groups respectively. p = ns (Student's t-test). (1 picture or pasted object on this page, not shown here)
# RXFP2 = RXFP2 (Homo sapiens, UniProt Q8WXD0); experiment: Confirmatory CRE-luciferase reporter assay in HEK-CRE-Luc-RXFP2 cells; type: cell-based; set-up: FLAG (N); expressed in transfected cells; details: for % Eff (CRE-luciferase): experiments (1)-(3)
# Chain of RXFP2 (Q8WXD0 whole entry): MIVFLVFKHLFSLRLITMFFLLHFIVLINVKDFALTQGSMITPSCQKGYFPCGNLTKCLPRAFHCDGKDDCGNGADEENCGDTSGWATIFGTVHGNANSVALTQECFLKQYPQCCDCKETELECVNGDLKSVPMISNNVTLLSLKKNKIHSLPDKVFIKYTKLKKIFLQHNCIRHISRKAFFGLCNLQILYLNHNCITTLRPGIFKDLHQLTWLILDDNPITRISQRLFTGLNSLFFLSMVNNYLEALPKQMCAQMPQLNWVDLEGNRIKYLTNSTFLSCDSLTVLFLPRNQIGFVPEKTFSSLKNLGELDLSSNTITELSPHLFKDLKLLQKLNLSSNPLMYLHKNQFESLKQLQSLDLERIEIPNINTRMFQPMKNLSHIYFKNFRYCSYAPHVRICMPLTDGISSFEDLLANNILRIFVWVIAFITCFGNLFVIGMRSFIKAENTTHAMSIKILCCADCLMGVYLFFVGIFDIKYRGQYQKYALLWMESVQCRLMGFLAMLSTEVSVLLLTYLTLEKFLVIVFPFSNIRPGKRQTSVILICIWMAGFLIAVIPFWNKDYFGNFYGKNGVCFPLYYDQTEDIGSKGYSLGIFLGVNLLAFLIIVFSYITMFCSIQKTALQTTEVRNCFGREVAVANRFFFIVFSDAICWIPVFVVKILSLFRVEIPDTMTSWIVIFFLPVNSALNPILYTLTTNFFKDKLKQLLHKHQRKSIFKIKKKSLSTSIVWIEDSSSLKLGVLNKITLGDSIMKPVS
# Procedure: A quantitative high-throughput screening (HTS) of more than 80 K compounds of the NCATS/NIH diversity collection was performed at four concentrations in HEK293T cells stably expressing human RXFP2 to identify candidate agonists. A homogenous time resolved fluorescence (HTRF) assay was used to directly detect compound-induced cAMP accumulation, with forskolin or human recombinant INSL3 serving as positive controls. […] Selected compounds with reasonable activity in dose response were also tested in a confirmatory orthogonal screening using a cAMP response element (CRE) driven luciferase reporter assay in HEK-CRE-Luc-RXFP2 cells, and in a counter-screen with cells transfected with human relaxin/insulin-like family peptide receptor 1 (RXFP1). Finally, we performed an extensive structure activity relationship campaign (SAR) to increase both the agonist efficacy and potency of the lead series. […] A confirmatory CRE-luciferase cAMP screen was used to eliminate any potential false positives due to assay detection artifacts (Supplementary Fig. 1a).
# HEK293T-CRE-Luc cells express luciferase under the control of the cAMP response element (CRE), which allows for indirect measurement of intracellular cAMP accumulation. HEK293T-CRE-Luc cells were stably transfected with human RXFP2 (HEK-CRE-Luc-RXFP2) or transiently transfected as above with mouse Rxfp2 (HEK-CRE-Luc-Rxfp2). HEK-CRE-Luc-RXFP2 and HEK-CRE-Luc-Rxfp2 cells were seeded at 15,000 and 30,000 cells per well, respectively, in 96-well plates using serum-free DMEM medium and incubated overnight at 37 °C, 5% CO2. After 18 h, cells were treated with a titration of compound, a titration of INSL3, 5 μM forskolin or DMSO vehicle. After treatment, cells were incubated for 3 h at 37 °C, 5% CO2. Plates were then allowed to equilibrate for 30 min at room temperature and an equal volume of substrate (Amplite Luciferase Reporter Gene Assay Kit, AAT Bioquest, Sunnyvale, CA) was added to each well. Plates were incubated for 40 min at room temperature protected from light and the luciferase output was read on a CLARIOstar plate reader.
# Supplementary Fig. 1: Compounds activate both human and mouse RXFP2 receptors. a Confirmatory CRE-Luciferase screening of RXFP2 agonists in st a b ly transfected HEK-CRE-Luc-RXFP2 cells. b Activation of mouse RXFP2 receptor by the compounds in transiently transfected HEK293T-CRE-Luc cells. Compound response was normalized to 100 nM INSL3 as 100% efficacy and DMSO vehicle as 0% efficacy.
# Results are expressed as mean ± SEM of 3 independent experim ents.
# (1 picture or pasted object on this page, not shown here)
# human LHCGR = human LHCGR (Homo sapiens, UniProt P22888); experiment: HitHunter cAMP XS+ assay, cAMP Hunter cell line LHCGR; type: cell-based; details: for RLU: replicates (1),(2)
# Chain of human LHCGR (P22888 27-699): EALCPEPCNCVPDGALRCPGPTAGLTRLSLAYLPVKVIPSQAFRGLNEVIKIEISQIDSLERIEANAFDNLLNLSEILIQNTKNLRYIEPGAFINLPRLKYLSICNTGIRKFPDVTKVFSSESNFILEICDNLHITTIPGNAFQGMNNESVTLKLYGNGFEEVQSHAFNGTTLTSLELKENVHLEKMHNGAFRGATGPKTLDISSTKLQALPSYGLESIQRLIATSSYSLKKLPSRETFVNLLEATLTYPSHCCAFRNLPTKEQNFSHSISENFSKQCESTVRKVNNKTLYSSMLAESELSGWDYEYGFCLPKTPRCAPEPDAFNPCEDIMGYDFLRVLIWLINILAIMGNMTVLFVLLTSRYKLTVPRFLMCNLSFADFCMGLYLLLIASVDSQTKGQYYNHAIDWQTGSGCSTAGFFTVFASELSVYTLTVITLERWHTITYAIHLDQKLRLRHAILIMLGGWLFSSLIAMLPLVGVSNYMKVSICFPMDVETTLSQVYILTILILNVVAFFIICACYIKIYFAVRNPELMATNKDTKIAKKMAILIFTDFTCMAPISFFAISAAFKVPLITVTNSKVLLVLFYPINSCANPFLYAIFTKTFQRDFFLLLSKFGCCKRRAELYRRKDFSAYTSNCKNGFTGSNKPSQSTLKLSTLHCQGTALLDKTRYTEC
# Description: Results are reported as raw RLU values and represent the
# mean ± SEM of 2 technical replicates.
# [1] = system: human aortic vascular smooth muscle cells (HAVSMC); experiment: CellTiter-Glo cytotoxicity assay in HAVSMC cells; type: cell-based; details: experiments (1)-(3)
# Description: Fig. 4 RXFP2 agonists induce mineralization of primary human osteoblasts and are non-cytotoxic. a Mineral hydroxyapatite fluorescent quantification after 14-day treatment in HCO cells. Results were normalized to control DMSO as 100% mineralization. b HCO and c HAVSMC toxicity after 24-h treatment with RXFP2 agonists, normalized to DMSO treatment as 0% toxicity. Results are expressed as mean ± SEM of 3 independent experiments. *p < 0.05, *** p < 0.001 vs. DMSO using One-way ANOVA.
# Cell viability studies were undertaken to identify potential cytotoxic effects of the RXFP2 agonists. HCO cells and human aortic vascular smooth muscle cells (HAVSMC) were treated for 24 h. […] At 8.3 µM and below, no toxicity was found in HCO cells and toxicity was below 20% in HAVSMC cells for all three compounds (Fig. 4b, c).
# The ATP CellTiter-Glo Luminescent Cell Viability Assay (Promega, Madison, WI) was used to measure cytotoxicity induced by the compounds in HCO cells and human aortic vascular smooth muscle cells (HAVSMC) (ATCC, Manassas, VA). HCO and HAVSMC cells were seeded in 96-well plates at 3000 and 7000 cells per well respectively. Cells were incubated overnight, treated with compound or DMSO vehicle and incubated for 24 h at 37 °C, 5% CO2. […] Plates were shaken for 2 min, incubated at room temperature for 10 min and the luminescent signal was read on a CLARIOstar plate reader.
# [2] = Supplementary Figure 15a, L3 vertebrae compression
# [3] = Supplementary Figure 15b, femur 3-point bending
compound,measurement,setting,value
O=C1Nc2ccc(-c3cc(C(F)(F)F)cc(C(F)(F)F)c3)cc2C(=O)N2CCN(C(=O)COc3ccc(OC(F)(F)F)cc3I)C[C@@H]12 [compound 6641],biomechanical properties of vertebrae and femur,"vertebrae and femur; 10 mg/kg PO 3 times per week, 8 weeks",no changes
same,Elastic Modulus (MPa),vertebrae and femur; [2],153.265 MPa and 132.946 MPa and 187.209 MPa and 254.765 MPa and 121.079 MPa and 235.799 MPa and 193.606 MPa and 184.897 MPa and 170.559 MPa and 170.73 MPa and 159.611 MPa and 225.093 MPa and 77.447 MPa and 155.764 MPa and 159.911 MPa
same,Ultimate Stress (MPa),vertebrae and femur; [2],14.1661 MPa and 20.1523 MPa and 16.2174 MPa and 22.2452 MPa and 21.0001 MPa and 22.5708 MPa and 23.224 MPa and 14.0488 MPa and 8.99 MPa and 16.5244 MPa and 23.9179 MPa and 31.2724 MPa and 15.8471 MPa and 17.3612 MPa and 20.3053 MPa
same,Yield Stress (MPa),vertebrae and femur; [2],13.761 MPa and 16.4161 MPa and 15.4319 MPa and 20.1436 MPa and 20.5667 MPa and 22.2148 MPa and 17.2035 MPa and 13.8315 MPa and 7.519 MPa and 16.2742 MPa and 23.3124 MPa and 30.0585 MPa and 14.6642 MPa and 10.8847 MPa and 20.2754 MPa
same,Elastic Modulus (MPa),vertebrae and femur; [3],7398.92 MPa and 8063.16 MPa and 7172.9 MPa and 5490.74 MPa and 6726.89 MPa and 7530 MPa and 6047.64 MPa and 5378.62 MPa and 5004.38 MPa and 6512.17 MPa and 8227.03 MPa and 6891.88 MPa and 7622.53 MPa and 6100.62 MPa and 7209.2 MPa
same,Ultimate Stress (MPa),vertebrae and femur; [3],125.43 MPa and 114.53 MPa and 121.49 MPa and 120.23 MPa and 113.48 MPa and 123.54 MPa and 148.86 MPa and 112.5 MPa and 116.79 MPa and 97.01 MPa and 135.98 MPa and 139.67 MPa and 122.96 MPa and 105.85 MPa and 123.21 MPa
same,Yield Stress (MPa),vertebrae and femur; [3],75.91 MPa and 60.78 MPa and 69.18 MPa and 62.13 MPa and 66.41 MPa and 57.07 MPa and 119.15 MPa and 57.74 MPa and 99.95 MPa and 60.92 MPa and 107.1 MPa and 79.8 MPa and 112.52 MPa and 62.12 MPa and 77.2 MPa
same,agonism of human RXFP2 in CRE-luciferase reporter assay,RXFP2; HEK-CRE-Luc-RXFP2,full agonist
same,% Eff (CRE-luciferase),"RXFP2; Log [M] -4.60, 100 nM INSL3 = 100%, DMSO = 0%",112.29% and 97.22% and 133.29%
same,% Eff (CRE-luciferase),RXFP2; Log [M] -5.00,116.16% and 119.1% and 157.5%
same,% Eff (CRE-luciferase),RXFP2; Log [M] -5.78,114.59% and 98.52% and 126.86%
same,% Eff (CRE-luciferase),RXFP2; Log [M] -6.56,113.18% and 86.94% and 103.38%
same,% Eff (CRE-luciferase),RXFP2; Log [M] -7.33,77.02% and 61.6% and 70.55%
same,% Eff (CRE-luciferase),RXFP2; Log [M] -8.11,44.24% and 30.05% and 30.02%
same,% Eff (CRE-luciferase),RXFP2; Log [M] -8.89,14.74% and 8.06% and 7.85%
same,% Eff (CRE-luciferase),RXFP2; Log [M] -9.67,6.98% and 1.71% and 0.6%
same,cAMP response through LHCGR,human LHCGR; Hit Hunter cAMP assay,did not result in an increase of cAMP level
same,RLU,human LHCGR; Log [M] -4.70,1280 RLU and 1080 RLU
same,RLU,human LHCGR; Log [M] -5.18,1000 RLU
same,RLU,human LHCGR; Log [M] -5.65,1080 RLU and 1000 RLU
same,RLU,human LHCGR; Log [M] -6.13,1080 RLU
same,RLU,human LHCGR; Log [M] -6.61,1040 RLU
same,RLU,human LHCGR; Log [M] -7.08,1200 RLU and 920 RLU
same,RLU,human LHCGR; Log [M] -7.56,1000 RLU
same,RLU,human LHCGR; Log [M] -8.04,960 RLU and 680 RLU
same,RLU,human LHCGR; Log [M] -8.52,1040 RLU
same,RLU,human LHCGR; Log [M] -8.99,960 RLU and 1040 RLU
same,% Tox,"[1]; Log [M] -5.08, 24 h",15.51% and 24.11% and 15.33%
same,% Tox,"[1]; Log [M] -5.56, 24 h",15.84% and 5.85%

# Reference: paper PMC9636434, “Discovery of small molecule agonists of the Relaxin Family Peptide Receptor 2” (Communications Biology, 2022)
